Assay results published in PubChem BioAssay AID1259407 (Chemical Carcinogenesis Research Information System (CCRIS), 2018).
The source made the active and inactive calls. How the calls were made is not given here.

Tested on: CCRIS mutagenicity, Ames/micronucleus/aberration tests
Assay: CCRIS mutagenicity studies
[1] = Test System: AMES SALMONELLA TYPHIMURIUM, Strain/Indicator: TA100, Metabolic Activation: NONE, Method: STANDARD PLATE
[2] = Test System: MOUSE LYMPHOMA, Strain/Indicator: L5178Y (TK+/TK-), Metabolic Activation: NONE, Method: SUSPENSION/PLATE

## Nc1ccc2cc3ccc(N)cc3nc2c1
Test System: AMES SALMONELLA TYPHIMURIUM, Strain/Indicator: TA98, Metabolic Activation: HAMSTER, LIVER, S-9, AROCLOR 1254, Method: STANDARD PLATE
  mutagenic call: active; positive
Test System: AMES SALMONELLA TYPHIMURIUM, Strain/Indicator: TA98, Metabolic Activation: HAMSTER, LIVER, S-9, Method: STANDARD PLATE
  mutagenic call: active; positive
Test System: AMES SALMONELLA TYPHIMURIUM, Strain/Indicator: TA98, Metabolic Activation: MOUSE, LIVER, S-9, AROCLOR 1254, Method: STANDARD PLATE
  mutagenic call: active; positive
Test System: AMES SALMONELLA TYPHIMURIUM, Strain/Indicator: TA98, Metabolic Activation: MOUSE, LIVER, S-9, Method: STANDARD PLATE
  mutagenic call: active; positive
Test System: AMES SALMONELLA TYPHIMURIUM, Strain/Indicator: TA98, Metabolic Activation: NONE, Method: FLUCTUATION (MICROTITER)
  mutagenic call: active; positive
Test System: AMES SALMONELLA TYPHIMURIUM, Strain/Indicator: TA98, Metabolic Activation: RAT, LIVER, S-9, AROCLOR 1254, Method: STANDARD PLATE
  mutagenic call: active; positive
Test System: AMES SALMONELLA TYPHIMURIUM, Strain/Indicator: TA98, Metabolic Activation: RAT, LIVER, S-9, Method: STANDARD PLATE
  mutagenic call: active; positive
[1]
  mutagenic call: inactive; negative
Test System: AMES SALMONELLA TYPHIMURIUM, Strain/Indicator: TA100, Metabolic Activation: RAT, LIVER, S-9, AROCLOR 1254, Method: STANDARD PLATE
  mutagenic call: active; positive
Test System: AMES SALMONELLA TYPHIMURIUM, Strain/Indicator: TA100, Metabolic Activation: RAT, LIVER, S-9, Method: STANDARD PLATE
  mutagenic call: inactive; negative
Test System: AMES SALMONELLA TYPHIMURIUM, Strain/Indicator: TA1535, Metabolic Activation: MOUSE, LIVER, S-9, AROCLOR 1254, Method: STANDARD PLATE
  mutagenic call: inactive; negative
Test System: AMES SALMONELLA TYPHIMURIUM, Strain/Indicator: TA1535, Metabolic Activation: NONE, Method: PREINCUBATION
  mutagenic call: inactive; negative
Test System: AMES SALMONELLA TYPHIMURIUM, Strain/Indicator: TA1535, Metabolic Activation: NONE, Method: STANDARD PLATE
  mutagenic call: inactive; negative
Test System: AMES SALMONELLA TYPHIMURIUM, Strain/Indicator: TA1535, Metabolic Activation: RAT, LIVER, S-9, AROCLOR 1254, Method: STANDARD PLATE
  mutagenic call: inactive; negative
Test System: AMES SALMONELLA TYPHIMURIUM, Strain/Indicator: TA1535, Metabolic Activation: RAT, LIVER, S-9, TETRACHLOROBIPHENYL, Method: PREINCUBATION
  mutagenic call: inactive; negative
Test System: AMES SALMONELLA TYPHIMURIUM, Strain/Indicator: TA1535, Metabolic Activation: RAT, LIVER, S-9, Method: STANDARD PLATE
  mutagenic call: inactive; negative
Test System: AMES SALMONELLA TYPHIMURIUM, Strain/Indicator: TA1537, Metabolic Activation: HAMSTER, LIVER, S-9, AROCLOR 1254, Method: STANDARD PLATE
  mutagenic call: active; positive
Test System: AMES SALMONELLA TYPHIMURIUM, Strain/Indicator: TA1537, Metabolic Activation: HAMSTER, LIVER, S-9, Method: STANDARD PLATE
  mutagenic call: active; positive
Test System: AMES SALMONELLA TYPHIMURIUM, Strain/Indicator: TA1537, Metabolic Activation: MOUSE, LIVER, S-9, AROCLOR 1254, Method: STANDARD PLATE
  mutagenic call: active; positive
Test System: AMES SALMONELLA TYPHIMURIUM, Strain/Indicator: TA1537, Metabolic Activation: MOUSE, LIVER, S-9, Method: STANDARD PLATE
  mutagenic call: active; positive
Test System: AMES SALMONELLA TYPHIMURIUM, Strain/Indicator: TA1537, Metabolic Activation: NONE, Method: FLUCTUATION (MICROTITER)
  mutagenic call: active; positive
Test System: AMES SALMONELLA TYPHIMURIUM, Strain/Indicator: TA1537, Metabolic Activation: NONE, Method: PREINCUBATION
  mutagenic call: active; positive
Test System: AMES SALMONELLA TYPHIMURIUM, Strain/Indicator: TA1537, Metabolic Activation: RAT, LIVER, S-9, AROCLOR 1254, Method: STANDARD PLATE
  mutagenic call: active; positive
Test System: AMES SALMONELLA TYPHIMURIUM, Strain/Indicator: TA1537, Metabolic Activation: RAT, LIVER, S-9, TETRACHLOROBIPHENYL, Method: PREINCUBATION
  mutagenic call: active; positive
Test System: AMES SALMONELLA TYPHIMURIUM, Strain/Indicator: TA1537, Metabolic Activation: RAT, LIVER, S-9, Method: STANDARD PLATE
  mutagenic call: active; positive
Test System: AMES SALMONELLA TYPHIMURIUM, Strain/Indicator: TA1538, Metabolic Activation: HAMSTER, LIVER, S-9, AROCLOR 1254, Method: STANDARD PLATE
  mutagenic call: active; positive
Test System: AMES SALMONELLA TYPHIMURIUM, Strain/Indicator: TA1538, Metabolic Activation: HAMSTER, LIVER, S-9, Method: STANDARD PLATE
  mutagenic call: active; positive
Test System: AMES SALMONELLA TYPHIMURIUM, Strain/Indicator: TA1538, Metabolic Activation: MOUSE, LIVER, S-9, AROCLOR 1254, Method: STANDARD PLATE
  mutagenic call: active; positive
Test System: AMES SALMONELLA TYPHIMURIUM, Strain/Indicator: TA1538, Metabolic Activation: MOUSE, LIVER, S-9, Method: STANDARD PLATE
  mutagenic call: active; positive
Test System: AMES SALMONELLA TYPHIMURIUM, Strain/Indicator: TA1538, Metabolic Activation: NONE, Method: PREINCUBATION
  mutagenic call: inactive; negative
Test System: AMES SALMONELLA TYPHIMURIUM, Strain/Indicator: TA1538, Metabolic Activation: RAT, LIVER, S-9, AROCLOR 1254, Method: STANDARD PLATE
  mutagenic call: active; positive
Test System: AMES SALMONELLA TYPHIMURIUM, Strain/Indicator: TA1538, Metabolic Activation: RAT, LIVER, S-9, TETRACHLOROBIPHENYL, Method: PREINCUBATION
  mutagenic call: active; positive
Test System: AMES SALMONELLA TYPHIMURIUM, Strain/Indicator: TA1538, Metabolic Activation: RAT, LIVER, S-9, Method: STANDARD PLATE
  mutagenic call: active; positive
Test System: AMES SALMONELLA TYPHIMURIUM, Strain/Indicator: TA1977, Metabolic Activation: NONE, Method: PREINCUBATION
  mutagenic call: active; positive
Test System: AMES SALMONELLA TYPHIMURIUM, Strain/Indicator: TA1977, Metabolic Activation: RAT, LIVER, S-9, TETRACHLOROBIPHENYL, Method: PREINCUBATION
  mutagenic call: active; positive
Test System: AMES SALMONELLA TYPHIMURIUM, Strain/Indicator: TA1978, Metabolic Activation: RAT, LIVER, S-9, TETRACHLOROBIPHENYL, Method: PREINCUBATION
  mutagenic call: active; positive
Test System: AMES SALMONELLA TYPHIMURIUM, Strain/Indicator: TA7001, Metabolic Activation: NONE, Method: FLUCTUATION (MICROTITER)
  mutagenic call: inactive; negative
Test System: AMES SALMONELLA TYPHIMURIUM, Strain/Indicator: TA7002, Metabolic Activation: NONE, Method: FLUCTUATION (MICROTITER)
  mutagenic call: inactive; negative
Test System: AMES SALMONELLA TYPHIMURIUM, Strain/Indicator: TA7003, Metabolic Activation: NONE, Method: FLUCTUATION (MICROTITER)
  mutagenic call: inactive; negative
Test System: AMES SALMONELLA TYPHIMURIUM, Strain/Indicator: TA7004, Metabolic Activation: NONE, Method: FLUCTUATION (MICROTITER)
  mutagenic call: inactive; negative
Test System: AMES SALMONELLA TYPHIMURIUM, Strain/Indicator: TA7005, Metabolic Activation: NONE, Method: FLUCTUATION (MICROTITER)
  mutagenic call: active; positive
Test System: AMES SALMONELLA TYPHIMURIUM, Strain/Indicator: TA7006, Metabolic Activation: NONE, Method: FLUCTUATION (MICROTITER)
  mutagenic call: inactive; negative
Test System: CHINESE HAMSTER OVARY, Strain/Indicator: CHO-K1-BH4 (HGPRT)/6-THIOGUANINE, Metabolic Activation: NONE, Method: SUSPENSION/PLATE
  mutagenic call: active; positive
Test System: CHINESE HAMSTER V-79, Strain/Indicator: V-79/6-THIOGUANINE, Metabolic Activation: NONE, Method: FLASK ASSAY
  mutagenic call: active; positive
Test System: E. COLI, Strain/Indicator: WP2 UVRA, Metabolic Activation: HAMSTER, LIVER, S-9, AROCLOR 1254, Method: STANDARD PLATE
  mutagenic call: inactive; negative
Test System: E. COLI, Strain/Indicator: WP2 UVRA, Metabolic Activation: HAMSTER, LIVER, S-9, Method: STANDARD PLATE
  mutagenic call: inactive; negative
Test System: E. COLI, Strain/Indicator: WP2 UVRA, Metabolic Activation: MOUSE, LIVER, S-9, Method: STANDARD PLATE
  mutagenic call: inactive; negative
Test System: E. COLI, Strain/Indicator: WP2 UVRA, Metabolic Activation: NONE, Method: STANDARD PLATE
  mutagenic call: inactive; negative
[2]
  mutagenic call: active; positive

## CCON(OC(C)=O)C(=O)c1ccccc1
Test System: AMES SALMONELLA TYPHIMURIUM, Strain/Indicator: TA98, Metabolic Activation: NONE, Method: STANDARD PLATE
  mutagenic call: active; positive
[1]
  mutagenic call: active; positive
Test System: AMES SALMONELLA TYPHIMURIUM, Strain/Indicator: TA100, Metabolic Activation: RAT, S-9, AROCLOR, Method: STANDARD PLATE
  mutagenic call: active; positive

## C=C(C)C(=O)OCCOCCOCCOCCOC(=O)C(=C)C
[2]
  mutagenic call: active; positive
